Experimental data as given in ChEMBL document CHEMBL1123356, “Plant antitumor agents. 22. Isolation of 11-hydroxycamptothecin from Camptotheca acuminata Decne: total synthesis and biological activity” (1986).

Experiments:
Assay type in all cases: functional, Mus musculus
[1] = system: L1210; experiment: Compound was tested for active dose in L1210 Leukemia assay; 10-40 mg/kg
[2] = system: L1210; experiment: Compound was tested for maximum percentage T/C in L1210 Leukemia assay at 40 mg/kg (no cures out of 6)
[3] = system: L1210; experiment: Compound was tested for toxic dose in L1210 Leukemia assay
[4] = system: L1210; experiment: Compound was tested for active dose in L1210 Leukemia assay; 7.5-60 mg/kg
[5] = system: L1210; experiment: Compound was tested for maximum percentage T/C in L1210 Leukemia assay at 60 mg/kg (3 cures out of 6)
[6] = system: L1210; experiment: Compound was tested for active dose in L1210 Leukemia assay; 2-8 mg/kg
[7] = system: L1210; experiment: Compound was tested for maximum percentage T/C in L1210 Leukemia assay at 8 mg/kg (no cures out of 6)

For `CC[C@@](O)(C(=O)[O-])c1cc2n(c(=O)c1CO)Cc1cc3ccccc3nc1-2.[Na+]`, the Active dose [1] was 10 mg/kg, the T/C [2] was 178% and the Toxic dose [3] was 80 mg/kg.

Molecule `CC[C@@]1(O)C(=O)OCc2c1cc1n(c2=O)Cc2cc3ccc(O)cc3nc2-1` (racemic) has an Active dose [4] of 7.5 mg/kg and a T/C [5] of 357%.

`CC[C@@]1(O)C(=O)OCc2c1cc1n(c2=O)Cc2cc3ccccc3nc2-1` [CAMPTOTHECIN] was tested, and the Active dose [6] was 2 mg/kg, the T/C [7] was 164% and the Toxic dose [3] was 16 mg/kg.
